Results taken from patent US10322143B2, “Inhibitors of ADAMTS4 or ADAMTS5 for use in preventing or treating cardiac remodeling and chronic heart failure” (Universitetet i Oslo, priority 2013, dated 2019).
Marks after values point to notes of the source that are not given here.

Tests used:
[1] = system: myocardial infarction rats; experiment: Myocardial infarction rat model: echocardiography, MRI and organ weights after PPS-treatment; type: in vivo; details: for EDV (end-diastolic volume, MRI) / Heart weight / LAD (left atrial diameter) / LVDd (left ventricular diameter at diastole) / Lung weight / Max. syst velocity (maximum systolic velocity) / RV weight / VTI (velocity time integral): median (interquartile range)
Excerpt: Male Wistar rats weighing 160-170 grams (approximately 7 weeks old) (Taconic, Skensved Denmark) underwent MI (myocardial infarction) by left coronary artery ligation as described previously (Sjaastad I, et al. J Appl Physiol 2000 October; 89(4):1445-54). In all surgical procedures performed, a mixture of 67% N2O, 28% O2, and 4% isoflurane in an anesthesia chamber was used for preoperative sedation. To maintain anesthesia preoperatively, a mixture of 69% N2O, 29% O2, and 2% isoflurane was given by the endotracheal tube and the animals were ventilated on a respirator (Zoovent, Triumph Technical Services, Milton Keynes, UK). Buprenorphine (0.2 mg/kg) was given as postoperative analgesia after MI. Rats were housed in cages (one or two rats in each cage) with Bee Kay bedding (Scanbur B K, Nittedal, Norway) in 55% humidity on a 12 h light/dark cycle, with food pellets (RM1, 801151, Scanbur B K) and water ad libitum.
(§1) At day 0 to 3 (median 2) after surgery, infarct size was quantified by echocardiography using the Vevo2100 system (Visualsonics Inc, Canada) and magnetic resonance imaging (MRi) using a 9.4 T/210 mm/ASR horizontal bore magnet (Agilent Technologies, Inc., USA). Initially, echocardiography was performed to select moderate to large infarcts ranging approximately 40 to 50%. Thereafter, infarct sizes were exactly measured by late-enhancement gadolinium MRi analyses (Bohl S., et al. American Journal of Physiology, 2009; 296 (4): H1200-H1208) and stratified into small infarcts (stratum 1: <43%, stratum 2: 43-48%), and large infarcts (stratum 3: 48-53%, stratum 4: >53%). The rats in each MI stratum and sham group were randomized to receive intervention or control treatment. The intervention group was treated with 6 mg/kg of sodium PPS (Interfarm AS, Norway), while the control group received vehicle (0.9% NaCl), both injected subcutaneously every third day starting from post-operative day 8-10.
After receiving PPS- or vehicle-treatment for 51 to 56 days (median 55 days), rats were sacrificed after examination by experienced investigators blinded to treatment group. In vivo heart function was evaluated as previously described with echocardiography (Sjaastad I, et al., J Appl Physiol 2000 October; 89(4):1445-54) and MRi (Espe E., Journal of Cardiovascular Magnetic Resonance 2013; 15(1):82). Thereafter, the heart and lung was excised under deep anesthesia, washed in saline and blotted dry to remove blood in the cardiac chambers. The heart chambers were separated by rapid dissection, before left ventricles were divided into infarcted and viable tissue. Lungs and cardiac tissue were snap-frozen in liquid nitrogen and stored at −70° C. until RNA and protein analyses.

[2] = system: ADAMTS5 mRNA; experiment: ADAMTS5 mRNA level (qRT-PCR) in MI rats; type: in vivo, rat; details: PPS-treatment
Description: as §1
The mRNA levels of the ADAMTS versicanases ADAMTS1, -4, -5, -8, and -20 (Shiomi T, et al. Pathology International 2010; 60(7):477-96), versican, aggrecan, syndecan-4, tissue inhibitor metalloprotease (TIMP)-3, and membrane-type (MT)4-MMP, were quantified in rat left ventricle by qRT-PCR, as previously described in Example 1.

[3] = MI strata 1 + 2 (small infarcts) PPS, 6 mg/kg s.c. every third day from day 8-10
[4] = MI strata 3 + 4 (large infarcts) PPS, 6 mg/kg s.c. every third day from day 8-10
[5] = Sham PPS, 6 mg/kg s.c. every third day
[6] = rats with large infarcts, PPS vs vehicle

For pentosan polysulfate [PPS], the “side effects including hemorrhage” value ([1]; MI rats, 6 mg/kg s.c. every third day, observed daily) was “no side effects”, the “EDV (end-diastolic volume, MRI)” value [1, 3] was 614 (524-707) and the Heart weight [1, 3] was 1610 (1450-1760) mg. For the same substance, the “LAD (left atrial diameter)” value [1, 3] was 5.32 (4.25-6.50) mm, the “LVDd (left ventricular diameter at diastole)” value (“LVDd” below) [1, 3] was 9.91 (9.50-10.29) mm and the Lung weight [1, 3] was 1930 (1450-3420) mg. For the same substance, the “Max. syst velocity (maximum systolic velocity)” value (“Max. syst velocity” below) [1, 3] was 39.7 (28.3-57.5), the RV weight [1, 3] was 300 (180-345) mg and the “VTI (velocity time integral)” value [1, 3] was 57.9 (50.8-69.6) mm. For the same substance, the “EDV (end-diastolic volume, MRI)” value [1, 4] was 644 (552-709), the Heart weight [1, 4] was 1595 (1475-1710) mg and the “LAD (left atrial diameter)” value [1, 4] was 6.88 (5.51-7.31) mm. For the same substance, the “LVDd” value [1, 4] was 10.25 (9.51-10.75) mm, the Lung weight [1, 4] was 2770 (1990-3385) mg and the “Max. syst velocity” value [1, 4] was 41.7 (31.2-52.0)*. For the same substance, the RV weight [1, 4] was 395 (355-523) mg, the “VTI (velocity time integral)” value [1, 4] was 69.8 (51.1-75.9)* mm and the “EDV (end-diastolic volume, MRI)” value [1, 5] was 293 (256-346). The Heart weight [1, 5] was 1005 (980-1248) mg, the “LAD (left atrial diameter)” value [1, 5] was 3.67 (3.45-3.73) mm and the “LVDd” value [1, 5] was 6.91 (6.60-7.88) mm. The Lung weight [1, 5] was 1255 (1158-1280) mg, the “Max. syst velocity” value [1, 5] was 64.0 (46.6-67.2) and the RV weight [1, 5] was 168 (160-208) mg. For the same substance, the “VTI (velocity time integral)” value [1, 5] was 58.5 (53.9-65.5) mm, the “reduction in heart weight” value ([1]; rats with large infarcts, PPS vs corresponding vehicle-treated rats) was about 25% and the “maximum systolic velocity after PPS-treatment” value [1, 6] was “improved”. The “reduction in left atrial diameter” value [1, 6] was 10%, the “reduction in lung weight” value [1, 6] was 1/3 and the “velocity time integral after PPS-treatment” value [1, 6] was “improved”. The “ADAMTS5 mRNA levels” value [2] was “decreased”.
